Read-outs that look alike come from different tables or passages of the source.
Legend:
[1] = system: α–SMA protein in NHLF cells; experiment: RapidFire MS/MS quantification of α–SMA (IPQA), standard assay; format: cell-based, human; conditions: NHLF, 5 ng/ml TGF–β1, lysed 48 h after TGF–β1, normalized to tubulin, mean ± SD, read-out: MS / MS α–SMA IC50
Experimental: (§1) Cell culture medium was removed and cells were lysed on ice by adding 5 μl / well of pre–cooled protein extraction buffer containing 10 mM Tris–HCl (pH 8.0), 6 M urea and 2 M thiourea and shaking on ice on a plate shaker at 600 rpm for 30 min.
(§2) Cell lysate was transferred to a 96–well polypropylene–PCR–plate. 15 μl / well denaturation buffer (6 M urea, 50 mM ammonium bicarbonate) and 2 μl / well of 50 mM TCEP were added and samples were denatured for 1 h at 60°C using the Veriti 96–well Fast Thermal Cycler System (Applied Biosystem) with a heated lid. Plates were allowed to cool to RT. Subsequently, 2 μl of 100 mM iodoacetamide were added per well to derivatize cysteine residues. Plates were then sealed and vortexed for 2 min in the dark and incubated for 30 min at 37°C in a thermal cycler with a heated lid. 90 μl of 50 mM ammonium bicarbonate pH 7.8 were added, followed by the addition of 10 μl of trypsin at 0.02 μg / ml. Samples were trypsin–digested overnight at 37°C in a thermal cycler with heated lid. […] Samples were desalted under vacuum using an Oasis HLB 96–well (30 μm particle size, 5 mg sorbent / well) reverse phase cartridge according to the manufacturer’s instructions and eluted with 170 μl of 90% acetonitrile, 0.1% formic acid. Samples were dried down with a flow of nitrogen at 40°C, left to cool to RT and re–suspended in 40 μl 5% acetonitrile, 0.1% formic acid on a plate shaker set to 1400 rpm for 5 min. Plates were centrifuged at 4,000 rpm for 10 min and 2 times 12 μl / well of supernatant were transferred into separate 96–well plates (Greiner Bio–One), sealed and stored at 4°C until analyzed by MS / MS.
(§3) Surrogate tryptic peptides were chosen for detection of COL1 (COL1A1), α–SMA (ACTA) and tubulin (TBA1A1) and crude synthetic peptides were purchased from Thermo Fischer. After several rounds of optimization following standard workflows, […] (COL1 / COL1A1), […] (α–SMA / ACTA) and […] LC–MS / MS analysis was performed on a RapidFire™ RF360 system (Agilent Technologies) coupled to an API 5500 (ABSciex) with positive ion electrospray ionization. […] Detection was performed using multiple reaction monitoring (MRM) mode to monitor parent⟶product ion transitions (m / z). […] The source parameters were curtain gas (CUR) nitrogen: 20 psig; collision gas (CAD): 7 psig; ion source gas 1: 50.0 psig; ion source gas 2: 50.0 psig; ion spray voltage (IS): 5500 V; turbo heater temperature (TEM): 600°C; entrance potential (EP): 10V. Peak areas for COL1A1 and ACTA were normalized by dividing by TBA1A peak area.

[2] = system: normal human lung fibroblasts (NHLF); experiment: Phenotypic high-content assay (HCA) of TGF–β1–induced fibroblast–to–myofibroblast differentiation; format: cell-based; conditions: for IC50: read-out: HCA IC50; for inhibition at 10 µM: read-out: Effect HCA at 10 µM [% inhibition]
Experimental: (§4) The plate was washed 3 times with starvation medium, e.g. fibroblast basal medium (FBM, Lonza) supplemented with 0.1% faf BSA, 100 units / ml of penicillin and 100 μg / ml of streptomycin and 250 ng / ml amphotericin B, and then starved for 24 h in 30 μl volume. NHLF were differentiated into myofibroblasts by incubation with 5 ng / ml TGF–β1 (from a stock of 20 μg / ml in 4 mM HCl, 1 mg / ml BSA) for 48 h. Compounds were prepared as 5x stocks in starvation medium and added to the starved cells to a final 1x concentration concomitant with TGF–β1 addition. The final DMSO concentration in the assay was 0.6% in all wells. 48 h after TGF–β1 addition, the medium was removed and the cells were fixed in methanol for 10 min at room temperature (RT). After fixation, cells were washed 3 times with 1 x PBS and either stored at 4°C for up to 3 days or further processed. […] Images were acquired on the Opera Phenix confocal high–content screening system (Perkin Elmer) using the 20–x water immersion lens.
(§5) DAPI stained nuclei were used to identify cells. α–SMA and FN regions were then identified and mapped to the corresponding nuclei for background correction, cell segmentation and cell feature computation to identify, classify and weigh over 400 features per cell. The computed features (S1 Table) comprise, but are not limited to, granularity, intensity, texture, area, shape and solidity of a cell in both α–SMA–and FN–expressing regions. The 0% compound effect (5 ng / ml TGF–β1) and the 100% compound effect (0 ng / ml TGF–β1) controls, were used to train and validate a support vector machine (SVM), a supervised learning model with associated learning algorithm that, once successfully validated, was applied to every cell in every well of the assayed microtiter plate. The SVM allowed autonomous weighting and classification of the characteristics and thus enabled the classifier to decide which characteristics were most relevant for the differentiation of the cell types. […] The classification of each cell was aggregated to a cell type ratio per well, represented as the computed percentage effect value per well indicative of the degree of myofibroblast differentiation. E.g. 100% equals complete myofibroblast differentiation, 0% indicates a pure fibroblast population without any signs of differentiation.

[3] = system: normal human lung fibroblasts (NHLF); experiment: Impedance measurement of TGF–β1–induced myofibroblast transition (IPQA), standard assay; format: cell-based; conditions: 5 ng/ml TGF–β1, compound added with TGF–β1, impedance at t = 20 h post TGF–β1, mean ± SD, read-out: Impedance IC50
Experimental: To measure dynamic cell shape and adhesion changes during fibrotic transdifferentiation, NHLF were seeded at a density of 20,000 cells per well in FGM–2 growth medium (Lonza) containing 100 units / ml of penicillin and 100 μg / ml of streptomycin into E–plates with continued impedance signal measurement (xCELLigence system, Roche Applied Science). After overnight growth, the medium was exchanged for FBM (Lonza) supplemented with 100 units / ml of penicillin and 100 μg / ml of streptomycin and 0.1% faf BSA and cells were starved for 32 h. Compound dilution series were added and myofibroblast transition was induced by adding TGF–β1 at a concentration of 5 ng / ml, followed by continued impedance sampling for up to 48 h. For data analysis, impedance raw traces were normalized to the time point of compound addition and the baseline response (DMSO, non–TGF–β1 treated cells) was subtracted. In some cases, impedance values at defined time points were used to generate concentration–response curves to determine compound potency and efficacy using GraphPad Prism software version 7 (GraphPad Software Inc).

[4] = system: COL1 protein in NHLF cells; experiment: RapidFire MS/MS quantification of COL1 (IPQA), standard assay; format: cell-based, human; conditions: NHLF, 5 ng/ml TGF–β1, lysed 48 h after TGF–β1, normalized to tubulin, mean ± SD, read-out: MS / MS COL1 IC50
Experimental: as §1, §2, §3

[5] = system: normal human lung fibroblasts (NHLF); experiment: Nuclear count in the HCA, standard assay; format: cell-based; conditions: read-out: Nuclear count IC50
Experimental: as §4, §5

NHLF cells = experiment: RealTime–Glo MT viability assay
Experimental: The effect of compounds on cell viability was assessed by quantifying the relative metabolic activity of cells using the non–lytic luminescence–based RealTime–Glo™ MT cell viability assay (Promega) according to the manufacturer’s instructions.

[6] = NHLF, 5 ng/ml TGF–β1 for 48 h, compound added with TGF–β1, mean ± SD
[7] = Homo sapiens, Fibroblast, 48 h, standard HCA, NHLF, 5 ng/ml TGF–β1, 48 h
[8] = Homo sapiens, Fibroblast, 48 h, NHLF, 5 ng/ml TGF–β1 for 48 h, compound added with TGF–β1, mean ± SD
[9] = Homo sapiens, Fibroblast, 10 µM compound, 5 ng/ml TGF–β1, 48 h
[10] = Homo sapiens, Fibroblast, standard HCA, NHLF, 5 ng/ml TGF–β1, 48 h
[11] = Homo sapiens, Fibroblast, NHLF, 5 ng/ml TGF–β1 for 48 h, compound added with TGF–β1, mean ± SD

Compound	IC50 [1] [µM]	IC50 [2, 6] [µM]	IC50 [3] [µM]	IC50 [4] [µM]	IC50 [2, 8] [µM]	inhibition at 10 µM [2, 9] [%]	further results
COc1cc(O)c2c(c1)/C=C/C[C@H](O)[C@H](O)C(=O)/C=C\C[C@H](C)OC2=O [5Z–7–Oxozeaenol]	0.3 ± 0.27	2.6	0.25 ± 0.17	0.46 ± 0.27			
CN(C)Cc1cccc(N/C(=C2\C(=O)Nc3cc(C(=O)N(C)C)ccc32)c2ccccc2)c1 [BIX 02189]	14	22	6	6.5			
O=C(Nc1cccc(Nc2ncc(Br)c(NCCc3cnc[nH]3)n2)c1)N1CCCC1 [BX–912]	8.6	17	7.5	8.7			
CCCCCCCC(=O)c1c(O)cc(O)cc1CC(=O)OCC [Csn–B]	> 50	39	> 50	> 50			
Nc1[nH]nc2nnc(-c3c(-c4ccccc4)nn4ccccc34)cc12 [FR180204]	49	> 46	50	36			
Clc1cc(Cl)c(OCC#CI)cc1Cl [Haloprogin]					1.3	77	IC50 [5, 7]: 4.5 µM; Effect on viability at 10 µM [% reduction] (NHLF cells; 10 µM compound): 61 % reduction
Cc1ccccc1-n1c(Cn2cnc3c(N)ncnc32)nc2cccc(C)c2c1=O [IC–87114]	> 5	44	> 5	4.9			
CC(C)NC[C@@H](C(=O)N1CCN(c2ncnc3c2[C@H](C)C[C@H]3O)CC1)c1ccc(Cl)cc1 [Ipatasertib]					22		IC50 ([1]; Homo sapiens): 25 µM; IC50 ([3]; Fibroblast): 43 µM; IC50 ([4]; Homo sapiens, Col1): > 50 µM
O=c1cc(N2CCOCC2)oc2c(-c3ccccc3)cccc12 [LY294002]					2.4		IC50 ([1]; Homo sapiens): 27 µM; IC50 ([3]; Fibroblast): 13 µM; IC50 ([4]; Homo sapiens, Col1, 48 h): 45 µM
CC(=O)O[C@H]1C[C@H](O[C@H]2[C@@H](O)C[C@H](O[C@H]3[C@@H](O)C[C@H](O[C@H]4CC[C@@]5(C)[C@H](CC[C@@H]6[C@@H]5C[C@@H](O)[C@]5(C)[C@@H](C7=CC(=O)OC7)CC[C@]65O)C4)O[C@@H]3C)O[C@@H]2C)O[C@H](C)[C@H]1O[C@@H]1O[C@H](CO)[C@@H](O)[C@H](O)[C@H]1O [Lanatoside C]						100	IC50 [5, 10]: > 25 µM; IC50 [2, 11]: 0.035 µM; Effect on viability at 10 µM [% reduction] (NHLF cells; human, 10 µM): 19 % reduction
C[C@@H]1O[C@@H](O[C@H]2C[C@@H](O)[C@]3(CO)[C@H]4[C@H](O)C[C@]5(C)[C@@H](C6=CC(=O)OC6)CC[C@]5(O)[C@@H]4CC[C@]3(O)C2)[C@H](O)[C@H](O)[C@H]1O [Ouabain]					0.012	100	IC50 [5, 7]: > 25 µM; Effect on viability at 10 µM [% reduction] (NHLF cells; 10 µM compound): 15 % reduction
C[C@@H]1O[C@@H](O[C@@H]2C=C3CC[C@@H]4[C@H](CC[C@]5(C)[C@@H](c6ccc(=O)oc6)CC[C@]45O)[C@@]3(C)CC2)[C@H](O)[C@H](O)[C@H]1O [Proscillaridin A]						101	IC50 [5, 10]: > 25 µM; IC50 [2, 11]: 0.001 µM; Effect on viability at 10 µM [% reduction] (NHLF cells; 10 µM compound): 12 % reduction
CCSc1ccc2c(c1)N(CCCN1CCN(C)CC1)c1ccccc1S2.O=C(O)CC(O)C(=O)O.O=C(O)CC(O)C(=O)O [Thiethylperazine dimalate]		8.5					IC50 ([5]; standard HCA, NHLF, 5 ng/ml TGF–β1, 48 h): 13 µM; Effect HCA at 10 µM [% inhibition] ([2]; 10 µM compound, 5 ng/ml TGF–β1, 48 h): 76 % inhibition; Effect on viability at 10 µM [% reduction] (NHLF cells): 34 % reduction
C=C(NC(=O)C(=C)NC(=O)c1csc(C2=N[C@@H]3c4csc(n4)[C@H]4NC(=O)c5csc(n5)[C@H]([C@](C)(O)[C@@H](C)O)NC(=O)[C@H]5CSC(=N5)/C(=C/C)NC(=O)[C@H]([C@@H](C)O)NC(=O)c5csc(n5)[C@]3(CC2)NC(=O)[C@H](C)NC(=O)C(=C)NC(=O)[C@H](C)NC(=O)[C@H]([C@@H](C)CC)N[C@@H]2C=Cc3c([C@H](C)O)cc(nc3[C@H]2O)C(=O)O[C@@H]4C)n1)C(N)=O [Thiostrepton]							IC50 ([5]; Homo sapiens, Fibroblast, 48 h): 7.6 µM; inhibition at 10 µM ([2]; Homo sapiens, Fibroblast, 48 h): 85%; IC50 ([2]; Homo sapiens, Fibroblast, 48 h): 2.2 µM; Effect on viability at 10 µM [% reduction] (NHLF cells; 10 µM compound): –11 % reduction
CC[C@@]1(O)C(=O)OCc2c1cc1n(c2=O)Cc2cc3c(CN(C)C)c(O)ccc3nc2-1 [Topotecan]					0.97	88	IC50 [5, 7]: > 25 µM; Effect on viability at 10 µM [% reduction] (NHLF cells; human, 10 µM): 8 % reduction
